Assay results published in US11884710B2, “Peptide compounds and methods of use in wound healing” (priority 2013, dated 2024).

How the values were obtained:
[1] = system: cytokines in corneal lysates; assay: Corneal cytokines after intrastromal injection (MILLIPLEX MAP mouse cytokine assay); assay type: in vivo; settings: intrastromal 0.5 μl, 10^−4, 10^−5, 10^−6 M; 24 and 48 hours
Method: Corneas were injected intrastromally with 0.5 μl of peptide 95-122 at a final concentration of 10^−4 M, 10^−5 M, and 10^−6 M and vehicle (saline) control. Corneas were collected and flash frozen at 24 hours and 48 hours. Corneal lysates were analyzed for cytokines using the MILLIPLEX® MAP mouse cytokine assay for IL-7(A), IL-15 (B), IFN-γ (C), MIP1-α (D) (EMD Millipore Corp., Billerica, Mass.). The means of independent experimental values are shown±SEM. ***P<0.001, **P<0.01, *P<0.05 by unpaired t-test as compared to vehicle treated controls. […] Corneas were injected intrastromally with 0.5 μl of peptide 95-122 at a final concentration of 10^−4 M, 10^−5 M, and 10^−6 M and vehicle (saline) control. Corneas were collected and flash frozen at 24 hours and 48 hours. Corneal lysates were analyzed for cytokines using the MILLIPLEX® MAP mouse cytokine assay for MIP1-β (EMD Millipore Corp., Billerica, Mass.). **P<0.01, *P<0.05 by unpaired t-test as compared to vehicle treated controls. […] Corneas were injected intrastromally with 0.5 μl of peptide 95-122 at a final concentration of 10^−4 M, 10^−5 M, and 10^−6 M and vehicle (saline) control. Corneas were collected and flash frozen at 24 hours and 48 hours. Corneal lysates were analyzed for cytokines using the MILLIPLEX® MAP mouse cytokine assay for KC (A), IL-1β (B), and GM-CSF (C) (EMD Millipore Corp., Billerica, Mass.). **P<0.01, *P<0.05 by unpaired t-test as compared to vehicle treated controls.

[2] = system: PKCδ; assay: PKCδ siRNA knockdown and CAP37-induced corneal wound healing in vivo; design: species or system mouse; settings: CAP37 250 ng/ml
Method: (A) siRNA directed against PKCδ or scrambled siRNA was injected into the mouse conjunctiva. The mouse corneal epithelium was removed with the AlgerBrush II. Corneal abrasions were treated at 0 and 16 hours with rCAP37 (250 ng/ml), or were left untreated (saline vehicle control). Wound healing was monitored at 0, 16, and 24 hours using fluorescein staining. Data are represented as the percentage of wound closure and are expressed as mean±SEM. The data are representative of at least 9 mice per group. *P<0.05 by unpaired t-test as compared to vehicle (normal saline) treated controls. The efficiency of the PKCδ knockdown in each cornea was confirmed by Western blot analysis 24 hours post-injection and determined in comparison to the scrambled siRNA-injected corneas. Data are representative of 22 experimental samples and are expressed as mean±SEM (***P<0.0005 by unpaired t-test). […]
siRNA transfection and gene silencing: Stealth RNAi™ (10 μM, Ambion®, Grand Island, N.Y.) directed against PKCδ or Stealth RNAi™ siRNA Negative Control Hi GC (10 μM, Ambion®) was delivered into the mouse conjunctiva through a 5 μl subconjunctival injection using a 33-gauge needle (Hamilton®, Reno, Nev.). […] Wound closure was quantitated at 16 and 24 hours as described. […]
Protein (20 μg) from each sample of corneal homogenate was analyzed by electrophoresis on a 10% SDS-PAGE gel. […]

Molecule: LDREANLTSSVTILPLPLQNATVEAGTR (listed as Homo sapiens) [Peptide 95-122]
- GM-CSF in corneal lysates [1]: significantly increases
- IFN-γ in corneal lysates [1]: significantly increases
- IL-7 in corneal lysates [1]: significantly increases
- IL-10 in corneal lysates [1]: significantly increases
- IL-15 in corneal lysates [1]: significantly increases
- KC in corneal lysates [1]: significantly increases
- MIP1-α in corneal lysates [1]: significantly increases
- MIP1-β in corneal lysates [1]: significantly increases

B1: CAP37: cationic antimicrobial protein of Mr 37 kDa; recombinant CAP37 produced in human embryonic kidney (HEK) 293 cells (protein)
chain: IVGGRKARPRQFPFLASIQNQGRHFCGGALIHARFVMTAASCFQSQNPGVSTVVLGAYDLRRRERQSRQTFSISSMSENGYDPQQNLNDLMLLQLDREANLTSSVTILPLPLQNATVEAGTRCQVAGWGSQRSGGRLSRFPRFVNVTVTPEDQCRPNNVCTGVLTRRGGICNGDGGTPLVCEGLAHGVASFSLGPCGRGPDFFTRVALFRDWIDGVLNNPGP
- wound healing in response to CAP37, in words ([2]; corneas transfected with PKCδ siRNA, 16 or 24 hours): no significant increase in wound healing
- wound closure after CAP37, in words ([2]; corneas transfected with scrambled siRNA, 24 hours): expected increase in wound closure
